According to patent US20230398130A1, “METHODS AND COMPOSITIONS FOR DIFFERENTIATING STEM CELLS” (Massachusetts Institute of Technology, priority 2020, published 2023):

Legend:
[1] = tested on: ISC-enriched organoids; assay: Secondary (validation) screen, 384-well 2.5-D, ENR+CD 6 days, n=8 wells, vs ENR+CD+DMSO control: ATP (CTG); format: cell-based, murine; set-up: key to Dose.FC.CTG: log10 fold change vs median of vehicle control wells
Method: (§1) Drugs were tested at a narrowed dose range around each treatment's identified optimal dose from the primary screen (4× below, 2× above and below).
(§2) High-throughput screening.
(§3) Secondary lysozyme secretion assay screen. Confirmatory secondary screening with primary hits was performed using the above 384-well plate method. The screen was conducted with 4-plate replicates with a base media of ENR+CD. Media was supplemented with compound at day 0 and day 3 (n=8 well replicates per dose) at four different doses: two-fold above, two-fold below, and four-fold below the optimal final dose for each respective treatment. Additionally, each plate carried a large number of ENR+DMSO or ENR+CD+DMSO (vehicle) control wells (n=100 for ATP, and n=25 for LYZ.NS and LYZ.S) for robust normalization. ATP, non-stimulated lysozyme activity and CCh-stimulated lysozyme activity was again measured and the collected data was again processed in a custom R-script, per primary screen with slight modification. Values were log10 transformed, and a plate-wise FC was calculated for each well based on the median value of ENR+CD+DMSO (vehicle) control wells to normalize plate to plate variability.

[2] = tested on: ISC-enriched organoids; assay: Secondary (validation) screen, 384-well 2.5-D, ENR+CD 6 days, n=8 wells, vs ENR+CD+DMSO control: carbachol-induced lysozyme secretion (LYZ.S); format: cell-based, murine
Method: as §1, §2, §3

[3] = tested on: ISC-enriched organoids; assay: Primary screen, 384-well 2.5-D organoid differentiation (ENR+CD, 6 days): basal lysozyme secretion (LYZ.NS); format: cell-based, murine; details: for Dose.FC.LYZ.NS: FC vs plate median; for Z.LYZ.NS: standard z score of FC
Description: as §2

[4] = tested on: ISC-enriched organoids; assay: Primary screen, 384-well 2.5-D organoid differentiation (ENR+CD, 6 days, Target Selective Inhibitor Library, vs whole-plate median): ATP (CellTiter-Glo 3D, CTG); details: for Dose.FC.CTG: FC vs plate median; for Z.CTG: standard z score of FC
[5] = tested on: ISC-enriched organoids; assay: Primary screen, 384-well 2.5-D organoid differentiation (ENR+CD, 6 days): carbachol-induced lysozyme secretion (LYZ.S); format: cell-based, murine; details: FC vs plate median
Description: as §2

[6] = tested on: ISC-enriched organoids; assay: Secondary (validation) screen, 384-well 2.5-D, ENR+CD 6 days, n=8 wells, vs ENR+CD+DMSO control: basal lysozyme secretion (LYZ.NS); format: cell-based, murine; set-up: key to Dose.FC.LYZ.NS: log10 fold change vs median of vehicle control wells
Method: as §1, §2, §3

## NC1(Cc2ccc(Cl)cc2)CCN(c2ncnc3[nH]ccc23)CC1 [CCT128930, reference compound]
[1]; Dose 0.02 uM
  Dose.FC.CTG: −0.117
  Z.CTG: −1.054
  repSSMD.CTG: −0.787
[1]; Dose 0.04 uM
  Dose.FC.CTG: 0.122
  Z.CTG: 1.101
  repSSMD.CTG: 0.922
[1]; Dose […]
  Dose.FC.CTG: −0.088
[1]; dose 0.08 uM
  Dose.FC.CTG: 0.166
  Z.CTG: 1.494
  repSSMD.CTG: 1.047
[2]; Dose 0.02 uM
  Z.LYZ.S: −2.445
  log10 fold change in stimulated lysozyme secretion vs vehicle control: −0.319
  repSSMD.LYZ.S: −3.825
[2]; Dose 0.04 uM
  Z.LYZ.S: −0.108
  log10 fold change in stimulated lysozyme secretion vs vehicle control: −0.014
  repSSMD.LYZ.S: −0.157
[2]; Dose […]
  log10 fold change in stimulated lysozyme secretion vs vehicle control: −0.217
[2]; dose 0.08 uM
  Z.LYZ.S: 0.041
  log10 fold change in stimulated lysozyme secretion vs vehicle control: 0.005
  repSSMD.LYZ.S: 0.069
[3]; Dose 0.08 uM, ENR+CD, 6 days
  Dose.FC.LYZ.NS: 0.323 log 2 fold change
[3]; Dose 0.08 uM
  Z.LYZ.NS: 2.811
[3]; Dose 0.40 uM, ENR+CD, 6 days
  Dose.FC.LYZ.NS: −0.018 log 2 fold change
[3]; Dose 0.40 uM
  Z.LYZ.NS: −0.154
[3]; Dose 2.00 uM, ENR+CD, 6 days
  Dose.FC.LYZ.NS: 0.073 log 2 fold change
[3]; Dose 2.00 uM
  Z.LYZ.NS: 0.633
[3]; Dose 10.00 uM, ENR+CD, 6 days
  Dose.FC.LYZ.NS: −0.150 log 2 fold change
[3]; Dose 10.00 uM
  Z.LYZ.NS: −1.307
[4]; Dose 0.08 uM, ENR+CD, 6 days
  Dose.FC.CTG: 0.095 log 2 fold change
[4]; Dose 0.08 uM
  Z.CTG: 0.228
[4]; Dose 0.40 uM, ENR+CD, 6 days
  Dose.FC.CTG: −0.025 log 2 fold change
[4]; Dose 0.40 uM
  Z.CTG: −0.060
[4]; Dose 2.00 uM, ENR+CD, 6 days
  Dose.FC.CTG: 0.127 log 2 fold change
[4]; Dose 2.00 uM
  Z.CTG: 0.304
[4]; Dose 10.00 uM, ENR+CD, 6 days
  Dose.FC.CTG: −0.175 log 2 fold change
[4]; Dose 10.00 uM
  Z.CTG: −0.418
[5]; Dose 0.08 uM, ENR+CD, 6 days
  Dose.FC.LYZ.S: 0.266 log 2 fold change
[5]; Dose 0.40 uM, ENR+CD, 6 days
  Dose.FC.LYZ.S: −0.007 log 2 fold change
[5]; Dose 2.00 uM, ENR+CD, 6 days
  Dose.FC.LYZ.S: 0.053 log 2 fold change
[5]; Dose 10.00 uM, ENR+CD, 6 days
  Dose.FC.LYZ.S: −0.201 log 2 fold change
[6]; Dose 0.02 uM
  Dose.FC.LYZ.NS: −0.241
  Z.LYZ.NS: −1.927
  repSSMD.LYZ.NS: −2.551
[6]; Dose 0.04 uM
  Dose.FC.LYZ.NS: −0.020
  Z.LYZ.NS: −0.164
  repSSMD.LYZ.NS: −0.204
[6]; Dose […]
  Dose.FC.LYZ.NS: −0.160
[6]; dose 0.08 uM
  Dose.FC.LYZ.NS: 0.031
  Z.LYZ.NS: 0.248
  repSSMD.LYZ.NS: 0.366

## CCc1cncnc1N1CCN(Cc2nc3ccc(C(F)(F)F)cc3[nH]2)CC1 [PF-4708671]
[1]; Dose 0.50 uM
  Dose.FC.CTG: −0.049
  Z.CTG: −0.443
  repSSMD.CTG: −0.324
[1]; Dose 1.00 uM
  Dose.FC.CTG: −0.039
  Z.CTG: −0.354
  repSSMD.CTG: −0.284
[1]; Dose 4.00 uM
  Dose.FC.CTG: 0.067
  Z.CTG: 0.601
  repSSMD.CTG: 0.414
[1]; dose 2.00 uM
  Dose.FC.CTG: −0.076
  Z.CTG: −0.684
  repSSMD.CTG: −0.558
[2]; Dose 0.50 uM
  Z.LYZ.S: −0.305
  log10 fold change in stimulated lysozyme secretion vs vehicle control: −0.040
  repSSMD.LYZ.S: −0.496
[2]; Dose 1.00 uM
  Z.LYZ.S: −1.879
  log10 fold change in stimulated lysozyme secretion vs vehicle control: −0.245
  repSSMD.LYZ.S: −2.451
[2]; Dose 4.00 uM
  Z.LYZ.S: −0.320
  log10 fold change in stimulated lysozyme secretion vs vehicle control: −0.042
  repSSMD.LYZ.S: −0.503
[2]; dose 2.00 uM
  Z.LYZ.S: −2.088
  log10 fold change in stimulated lysozyme secretion vs vehicle control: −0.272
  repSSMD.LYZ.S: −3.604
[3]; Dose 0.08 uM, primary screen
  Dose.FC.LYZ.NS: 0.075 log 2 fold change
[3]; Dose 0.08 uM
  Z.LYZ.NS: 0.654
[3]; Dose 0.40 uM, primary screen
  Dose.FC.LYZ.NS: 0.122 log 2 fold change
[3]; Dose 0.40 uM
  Z.LYZ.NS: 1.059
[3]; Dose 2.00 uM, primary screen
  Dose.FC.LYZ.NS: 0.198 log 2 fold change
[3]; Dose 2.00 uM
  Z.LYZ.NS: 1.721
[3]; Dose 10.00 uM, primary screen
  Dose.FC.LYZ.NS: 0.034 log 2 fold change
[3]; Dose 10.00 uM
  Z.LYZ.NS: 0.297
[4]; Dose 0.08 uM, primary screen
  Dose.FC.CTG: 0.261 log 2 fold change
[4]; Dose 0.08 uM
  Z.CTG: 0.623
[4]; Dose 0.40 uM, primary screen
  Dose.FC.CTG: 0.268 log 2 fold change
[4]; Dose 0.40 uM
  Z.CTG: 0.640
[4]; Dose 2.00 uM, primary screen
  Dose.FC.CTG: 0.302 log 2 fold change
[4]; Dose 2.00 uM
  Z.CTG: 0.721
[4]; Dose 10.00 uM, primary screen
  Dose.FC.CTG: −0.321 log 2 fold change
[4]; Dose 10.00 uM
  Z.CTG: −0.766
[5]; Dose 0.08 uM, primary screen
  Dose.FC.LYZ.S: 0.136 log 2 fold change
[5]; Dose 0.40 uM, primary screen
  Dose.FC.LYZ.S: 0.172 log 2 fold change
[5]; Dose 2.00 uM, primary screen
  Dose.FC.LYZ.S: 0.209 log 2 fold change
[5]; Dose 10.00 uM, primary screen
  Dose.FC.LYZ.S: −0.024 log 2 fold change
[6]; Dose 0.50 uM
  Dose.FC.LYZ.NS: 0.005
  Z.LYZ.NS: 0.039
  repSSMD.LYZ.NS: 0.058
[6]; Dose 1.00 uM
  Dose.FC.LYZ.NS: −0.200
  Z.LYZ.NS: −1.600
  repSSMD.LYZ.NS: −1.909
[6]; Dose 4.00 uM
  Dose.FC.LYZ.NS: 0.015
  Z.LYZ.NS: 0.120
  repSSMD.LYZ.NS: 0.171
[6]; dose 2.00 uM
  Dose.FC.LYZ.NS: −0.221
  Z.LYZ.NS: −1.764
  repSSMD.LYZ.NS: −2.529
